From patent US9358305B2, “Targeted carriers for drug delivery across the gastrointestinal epithelium” (University of Maryland, College Park, priority 2009, dated 2016)
Ends that are not written are not given here.

B1: α-L-iduronidase: enzyme targeted to insulin receptor, reported brain delivery strategy (protein, UniProt P35475 28-653, looked up)
Alpha-L-iduronidase: APHLVHVDAARALWPLRRFWRSTGFCPPLPHSQADQYVLSWDQQLNLAYVGAVPHRGIKQVRTHWLLELVTTRGSTGRGLSYNFTHLDGYLDLLRENQLLPGFELMGSASGHFTDFEDKQQVFEWKDLVSSLARRYIGRYGLAHVSKWNFETWNEPDHHDFDNVSMTMQGFLNYYDACSEGLRAASPALRLGGPGDSFHTPPRSPLSWGLLRHCHDGTNFFTGEAGVRLDYISLHRKGARSSISILEQEKVVAQQIRQLFPKFADTPIYNDEADPLVGWSLPQPWRADVTYAAMVVKVIAQHQNLLLANTTSAFPYALLSNDNAFLSYHPHPFAQRTLTARFQVNNTRPPHVQLLRKPVLTAMGLLALLDEEQLWAEVSQAGTVLDSNHTVGVLASAHRPQGPADAWRAAVLIYASDDTRAHPNRSVAVTLRLRGVPPGPGLVYVTRYLDNGLCSPDGEWRRLGRPVFPTAEQFRRMRAAEDPVAAAPRPLPAGGRLTLRPALRLPSLLLVHVCARPEKPPGQVTRLRALPLTQGQLVLVWSDEHVGSKCLWTYEIQFSQDGKAYTPVSRKPSTFNLFVFSPDTGAVSGSYRVRALDYWARPGPFSDPVPYLEVPVPRGPPSPGNP

What was measured:
ICAM-1 on HUVEC = experiment: Leukocyte transmigration across TNF-activated HUVEC monolayer in transwell; assay type: cell-based, human; conditions: compared to albumin, scrambled peptide and LB2 controls
Experimental: Human endothelial cells (human umbilical vein endothelial cells (HUVECs)) were grown until formation of a continuous confluent monolayer in a transwell filter located between upper and lower chambers. The cells were then treated with tumor necrosis factor alpha to mimic inflammatory activation of endothelial cells and SDF1a was added to the lower chamber to generate a gradient to attract white blood cells, as during inflammation. Lymphocytes isolated from human peripheral blood were activated with interleukin 2 and added to the upper chamber above endothelial cells in the absence (control) or presence of ICAM-1-targeting peptides A1, B7, B8, B9, B10, or D6. Albumin or a peptide of scrambled sequence were used as negative controls which should not block inflammatory transmigration of leukocytes across endothelial cells. The anti-ICAM antibody LB2, which is known to block leukocyte adhesion to ICAM-1, was used as a positive control which should block such transmigration.
Leukocytes which transmigrated to the lower chamber below endothelial cells were counted to assess their transmigration. FIG. 9 provides a graph of the resulting leukocyte transmigration as a percentage of the control. The peptides annotated with an asterisk in FIG. 9 indicate that the peptide was effective in statistically significant blockage of leukocyte transmigration across endothelial cells.

human ICAM-1 = experiment: Binding of clone A1 phages to human ICAM-1/hFc and HUVEC
mouse ICAM-1/hFc [1] = experiment: ELISA of 7-mer peptide phage clones on immobilized mouse ICAM-1/hFc vs hFc; assay type: binding; conditions: phage clone
From the text: (§1) (A) ELISA measurement of the binding of 7-mer peptide expressing phage library to immobilized recombinant ICAM-1 (consisting of the two most membrane-distal Ig domains—1 and 2—of mouse ICAM-1 fused to human Fc or hFc), versus their binding to control hFc. (B) Relative specificity and (C) relative affinity of ICAM-1-targeting peptide phages, determined by ELISA from the experiment in (A). (D) Relative binding of phages expressing 7-mer peptides to native ICAM-1 expressed on the surface of HV5 mouse endothelial cells, either control or activated with TNFalpha to mimic a disease phenotype. Binding was determined by microscopy using a fluorescently-labeled antibody to the phage capsid. The line in the graph indicates the level of binding of A1 phage to 293 cells, which are voided of ICAM-1-expression. […] (G) Binding of FITC-labeled anti-ICAM polystyrene nanocarriers to human endothelial cells was evaluated by fluorescence microscopy after incubation with cells in the absence (100% level) or presence of anti-ICAM antibody, ICAM-1-targeting synthetic peptides, or peptides with their scramble sequence (e.g., A1sc).

mouse ICAM-1/hFc [2] = target: T1, mouse ICAM-1/hFc (Mus musculus, UniProt P13597); experiment: as above; assay type: binding; conditions: phage clone
T1 construct: the two most membrane-distal Ig domains—1 and 2—of mouse ICAM-1 fused to human Fc or hFc
From the text: as §1

[3] = target: T2, ICAM-1 on human endothelial cells (Homo sapiens, UniProt P05362); experiment: Competition of binding of anti-ICAM nanocarriers to human endothelial cells by synthetic peptides; assay type: cell-based
T2 construct: endogenous in cells
From the text: (A) ELISA measurement of the binding of 7-mer peptide expressing phage library to immobilized recombinant ICAM-1 (consisting of the two most membrane-distal Ig domains—1 and 2—of mouse ICAM-1 fused to human Fc or hFc), versus their binding to control hFc. (B) Relative specificity and (C) relative affinity of ICAM-1-targeting peptide phages, determined by ELISA from the experiment in (A). (D) Relative binding of phages expressing 7-mer peptides to native ICAM-1 expressed on the surface of HV5 mouse endothelial cells, either control or activated with TNFalpha to mimic a disease phenotype. Binding was determined by microscopy using a fluorescently-labeled antibody to the phage capsid. The line in the graph indicates the level of binding of A1 phage to 293 cells, which are voided of ICAM-1-expression. (E, F) Endocytosis (1 h, 37° C.) of phages expressing 7-mer peptides by control mouse endothelial cells (E) or mouse endothelial cells incubated in the presence of 3 mM amiloride (F) was estimated by microscopy after staining surface-located phages with a Texas red-labeled antibody to the viral capsid, following by cell permeabilization and staining of all (surface and internalized) phages using a FITC-labeled antibody to the viral capsid. (G) Binding of FITC-labeled anti-ICAM polystyrene nanocarriers to human endothelial cells was evaluated by fluorescence microscopy after incubation with cells in the absence (100% level) or presence of anti-ICAM antibody, ICAM-1-targeting synthetic peptides, or peptides with their scramble sequence (e.g., A1sc).

insulin receptor = insulin receptor (Homo sapiens, UniProt P06213); conditions: reported for other strategies; cited from earlier work

T1 sequence (P13597 28-214): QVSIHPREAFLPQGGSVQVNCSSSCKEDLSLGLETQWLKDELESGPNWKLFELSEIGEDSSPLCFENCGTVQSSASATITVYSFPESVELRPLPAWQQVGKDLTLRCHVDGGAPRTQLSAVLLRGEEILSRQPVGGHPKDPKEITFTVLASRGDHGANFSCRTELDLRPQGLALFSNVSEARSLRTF
T2 sequence (P05362 28-532): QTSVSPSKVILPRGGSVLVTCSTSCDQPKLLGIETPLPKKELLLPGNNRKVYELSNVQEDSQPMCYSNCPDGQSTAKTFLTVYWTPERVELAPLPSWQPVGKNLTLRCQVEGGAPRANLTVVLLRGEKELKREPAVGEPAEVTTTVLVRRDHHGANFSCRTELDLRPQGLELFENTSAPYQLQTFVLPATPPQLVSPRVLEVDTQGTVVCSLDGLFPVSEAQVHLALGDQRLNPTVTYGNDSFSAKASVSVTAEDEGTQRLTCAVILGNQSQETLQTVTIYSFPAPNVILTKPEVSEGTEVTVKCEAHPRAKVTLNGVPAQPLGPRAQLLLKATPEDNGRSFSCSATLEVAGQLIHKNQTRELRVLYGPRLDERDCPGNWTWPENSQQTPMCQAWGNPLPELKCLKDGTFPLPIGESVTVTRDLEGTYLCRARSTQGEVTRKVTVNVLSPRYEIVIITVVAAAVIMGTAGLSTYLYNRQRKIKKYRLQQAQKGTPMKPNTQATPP

Row | Molecule | Leukocyte transmigration across endothelial cells (ICAM-1 on HUVEC) | Affinity for human ICAM-1 relative to mouse ICAM-1 (human ICAM-1) | Specificity vs hFc (mouse ICAM-1/hFc [1]) [fold] | Affinity to immobilized mouse ICAM-1 over non-selected phages (mouse ICAM-1/hFc [2]) [fold] | Inhibition of binding of anti-ICAM nanocarriers to human endothelial cells [3] [% inhibition] | Brain accumulation, targeting to insulin receptor (insulin receptor)
1 | YPASYQR [A1, YPASYQR] | inhibit leukocyte transmigration | ~70 % affinity of mouse ICAM-1 | ~5.1 | ~4.7 | ~80 | 
2 | B1 |  |  |  |  |  | 0.02 % injected dose per gram (% ID/g)
